ChEMBL document CHEMBL5034015, “Structure-Based Optimization of 3-Phenyl-N-(2-(3-phenylureido)ethyl)thiophene-2-sulfonamide Derivatives as Selective Mcl-1 Inhibitors” (J Med Chem, 2021)
pIC50, pKi: −log10 of the molar value. Active and inactive are the calls of the source. How the calls were made is not given here.

Columns and labels:
[1] = biological target: T1, Induced myeloid leukemia cell differentiation protein Mcl-1 (Homo sapiens, UniProt Q07820); assay: Binding affinity to full length human MCL1 expressed in Escherichia coli BL21 (DE3) at 100 uM preincubated for 30 mins followed by 5-FAM-QEDIIIINIARHLAQVGDSMD-RSIPPG tracer addition and measured after 20 mins by fluorescence polarization assay relative to control; conditions: time 50.0 min
Bcl-2-like protein 1 [2] = biological target: T2, Bcl-2-like protein 1 (Homo sapiens, UniProt Q07817); assay: Binding affinity to full length human Bcl-xl expressed in Escherichia coli BL21 (DE3) at 100 uM preincubated for 30 mins followed by 5-FAM-QEDIIIINIARHLAQVGDSMD-RSIPPG tracer addition and measured after 20 mins by fluorescence polarization assay relative to control; conditions: time 50.0 min
[3] = biological target: T3, Apoptosis regulator Bcl-2 (Homo sapiens, UniProt P10415); assay: Binding affinity to full length human Bcl-2 expressed in Escherichia coli BL21 (DE3) at 100 uM preincubated for 30 mins followed by 5-FAM-QEDIIIINIARHLAQVGDSMD-RSIPPG tracer addition and measured after 20 mins by fluorescence polarization assay relative to control; conditions: time 50.0 min
HL-60 = assay: cells; conditions: Homo sapiens, HL-60, 48 h
Description: Cytotoxicity against human HL-60 cells assessed as inhibition of cell growth incubated for 48 hrs by CCK8 assay

RS4-11 = assay: cells; conditions: Homo sapiens, RS4-11, 48 h
Description: Cytotoxicity against human RS4-11 cells assessed as inhibition of cell growth incubated for 48 hrs by CCK8 assay

HEK-293T = assay: Cytotoxicity against HEK293T cells assessed as reduction in cell viability incubated for 48 hrs by CCK8 assay; conditions: Homo sapiens
HeLa = assay: cells; conditions: Homo sapiens, 48 h
Description: Cytotoxicity against human HeLa cells assessed as inhibition of cell growth incubated for 48 hrs by CCK8 assay

[4] = biological target: T1, Induced myeloid leukemia cell differentiation protein Mcl-1; assay: Binding affinity to full length human MCL1 expressed in Escherichia coli BL21 (DE3) assessed as inhibition constant preincubated for 30 mins followed by 5-FAM-QEDIIIINIARHLAQVGDSMD-RSIPPG tracer addition and measured after 20 mins by fluorescence polarization assay
Bcl-2-like protein 1 [5] = biological target: T2, Bcl-2-like protein 1; assay: Binding affinity to full length human Bcl-xl expressed in Escherichia coli BL21 (DE3) at up to 100 uM preincubated for 30 mins followed by 5-FAM-QEDIIIINIARHLAQVGDSMD-RSIPPG tracer addition and measured after 20 mins by fluorescence polarization assay; conditions: dose microM <=100, time 50.0 min
[6] = biological target: T3, Apoptosis regulator Bcl-2; assay: Binding affinity to full length human Bcl-2 expressed in Escherichia coli BL21 (DE3) assessed as inhibition constant preincubated for 30 mins followed by 5-FAM-QEDIIIINIARHLAQVGDSMD-RSIPPG tracer addition and measured after 20 mins by fluorescence polarization assay
[7] = biological target: T3, Apoptosis regulator Bcl-2; assay: Binding affinity to full length human Bcl-2 expressed in Escherichia coli BL21 (DE3) at up to 100 uM preincubated for 30 mins followed by 5-FAM-QEDIIIINIARHLAQVGDSMD-RSIPPG tracer addition and measured after 20 mins by fluorescence polarization assay; conditions: dose microM <=100, time 50.0 min

T1 sequence (Q07820 whole entry): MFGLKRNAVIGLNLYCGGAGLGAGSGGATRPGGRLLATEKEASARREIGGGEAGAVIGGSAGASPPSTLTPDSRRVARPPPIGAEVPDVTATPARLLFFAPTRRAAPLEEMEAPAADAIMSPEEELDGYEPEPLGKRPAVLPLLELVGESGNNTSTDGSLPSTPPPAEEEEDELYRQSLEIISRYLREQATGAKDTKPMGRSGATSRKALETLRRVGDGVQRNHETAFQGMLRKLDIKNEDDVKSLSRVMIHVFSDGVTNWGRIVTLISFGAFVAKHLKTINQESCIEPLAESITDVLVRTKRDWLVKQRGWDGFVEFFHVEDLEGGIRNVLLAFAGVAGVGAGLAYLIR
T2 sequence (Q07817 whole entry): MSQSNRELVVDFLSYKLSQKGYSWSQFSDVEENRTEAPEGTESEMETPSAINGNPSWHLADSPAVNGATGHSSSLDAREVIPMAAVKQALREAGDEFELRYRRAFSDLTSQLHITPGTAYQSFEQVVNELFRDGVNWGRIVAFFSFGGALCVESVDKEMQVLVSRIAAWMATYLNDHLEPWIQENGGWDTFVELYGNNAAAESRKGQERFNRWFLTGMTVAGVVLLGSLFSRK
T3 sequence (P10415 whole entry): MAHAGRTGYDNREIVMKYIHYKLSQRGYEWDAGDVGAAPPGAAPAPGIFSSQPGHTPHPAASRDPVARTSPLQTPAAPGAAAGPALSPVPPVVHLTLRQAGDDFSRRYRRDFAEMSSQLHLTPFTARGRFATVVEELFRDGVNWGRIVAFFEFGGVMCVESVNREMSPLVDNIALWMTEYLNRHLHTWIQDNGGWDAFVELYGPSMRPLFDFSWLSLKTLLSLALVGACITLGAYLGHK

Structure (SMILES) | inhibition [1] [%] | inhibition (Bcl-2-like protein 1 [2]) [%] | inhibition [3] [%] | pIC50 (HL-60) | pIC50 (RS4-11) | pIC50 (HEK-293T) | pIC50 (HeLa) | pKi [4] | Activity (Bcl-2-like protein 1 [5]) | pKi [6] | Activity [7]
COc1ccc(Oc2ccc([N+](=O)[O-])cc2-c2ccsc2S(=O)(=O)N2CCN(C(=S)Nc3ccc([N+](=O)[O-])cc3)CC2)cc1OC | 26 | 27 | 16 | < 4.30 | < 4.30 | < 4.30 | < 4.30 | – | – | – | –
O=S(=O)(c1sccc1-c1ccccc1Oc1ccc(O)c(O)c1)N1CCN(C(=S)Nc2cc(C(F)(F)F)cc(C(F)(F)F)c2)CC1 | 72 | 12 | 20 | 5.66 | 5.14 | < 4.70 | < 4.70 | – | – | – | –
O=S(=O)(c1sccc1-c1ccccc1Oc1ccc(O)c(O)c1)N1CCN(C(=S)Nc2ccc(Cl)cc2)CC1 | 20 | 3 | 2 | 5.26 | 5.12 | < 4.30 | < 4.30 | – | – | – | –
COc1ccc(Oc2ccccc2-c2ccsc2S(=O)(=O)N2CCN(C(=S)Nc3ccc(Cl)cc3)CC2)cc1OC | 43 | 33 | 18 | < 4.30 | < 4.30 | < 4.70 | < 4.30 | – | – | – | –
O=S(=O)(NCCNC(=S)Nc1cc(C(F)(F)F)cc(C(F)(F)F)c1)c1sccc1-c1ccccc1Oc1ccc(O)c(O)c1 | – | – | – | 5.37 | 5.32 | 5.12 | < 4.30 | 6.08 | inactive | 5.25 | –
COc1ccc(Oc2ccccc2-c2ccsc2S(=O)(=O)N2CCN(C(=O)Nc3cccc([N+](=O)[O-])c3)CC2)cc1OC | 31 | 19 | 18 | < 4.30 | < 4.30 | < 4.70 | < 4.30 | – | – | – | –
COc1ccc(Oc2ccccc2-c2ccsc2S(=O)(=O)N2CCN(C(=S)Nc3ccc([N+](=O)[O-])cc3)CC2)cc1OC | 33 | 18 | 16 | < 4.30 | < 4.30 | < 4.70 | < 4.30 | – | – | – | –
O=C(Nc1cccc([N+](=O)[O-])c1)N1CCN(S(=O)(=O)c2sccc2-c2ccccc2Oc2ccc(O)c(O)c2)CC1 | 74 | 34 | 30 | 5.35 | 5.01 | < 4.70 | < 4.70 | – | – | – | –
O=C(NCCNS(=O)(=O)c1ccc(-c2ccccc2Oc2ccc([N+](=O)[O-])c([N+](=O)[O-])c2)s1)Nc1ccc(Cl)cc1 | – | – | – | 5.09 | 5.17 | < 4.70 | < 4.70 | 5.23 | inactive | – | inactive
O=C(NCCNS(=O)(=O)c1sccc1-c1ccccc1Oc1ccc(O)c(O)c1)Nc1cc(C(F)(F)F)cc(C(F)(F)F)c1 | – | – | – | 5.24 | 5.31 | 5.05 | < 4.30 | 5.68 | inactive | 4.77 | –
O=C(Nc1ccc(F)cc1)N1CCN(S(=O)(=O)c2sccc2-c2ccccc2Oc2ccc(O)c(O)c2)CC1 | 95 | 32 | 33 | 5.09 | 5.17 | 4.81 | 4.83 | – | – | – | –
Cc1cc(C)cc(NC(=O)NCCNS(=O)(=O)c2ccc(-c3ccccc3Oc3ccc(N)cc3)s2)c1 | – | – | – | < 4.30 | < 4.70 | < 4.70 | < 4.70 | 5.80 | inactive | – | inactive
O=C(Nc1ccc([N+](=O)[O-])cc1)N1CCN(S(=O)(=O)c2sccc2-c2ccccc2Oc2ccc(O)c(O)c2)CC1 | 63 | 29 | 33 | 5.31 | 4.84 | < 4.70 | < 4.70 | – | – | – | –
COc1ccc(Oc2ccccc2-c2ccsc2S(=O)(=O)N2CCN(C(=O)Nc3cc(C(F)(F)F)cc(C(F)(F)F)c3)CC2)cc1OC | 44 | 24 | 23 | < 4.70 | < 4.30 | < 4.70 | < 4.30 | – | – | – | –
COc1ccc(Oc2ccccc2-c2ccsc2S(=O)(=O)N2CCN(C(=O)Nc3ccc([N+](=O)[O-])cc3)CC2)cc1OC | 22 | 20 | 17 | < 4.30 | < 4.30 | < 4.70 | < 4.30 | – | – | – | –
Cc1ccc(-c2ccsc2S(=O)(=O)NCCNC(=O)Nc2cc(Cl)cc(Cl)c2)c(Oc2ccc(O)c(O)c2)c1 | – | – | – | 5.46 | 5.29 | 5.17 | 5.19 | 6.23 | inactive | 5.54 | –
COc1ccc(Oc2ccc(C(C)C)cc2-c2ccsc2S(=O)(=O)NCCNC(=S)Nc2cc(C(F)(F)F)cc(C(F)(F)F)c2)cc1OC | – | – | – | 5.16 | 5.26 | 4.99 | 5.08 | 4.92 | inactive | – | inactive
O=C(NCCNS(=O)(=O)c1sccc1-c1ccccc1Oc1ccc(O)c(O)c1)Nc1cc(Cl)cc(Cl)c1 | – | – | – | 5.16 | 5.21 | 4.97 | < 4.30 | 5.85 | inactive | 5.34 | –
CC(C)c1ccc(Oc2ccc(O)c(O)c2)c(-c2ccsc2S(=O)(=O)NCCNC(=O)Nc2cc(Cl)cc(Cl)c2)c1 | – | – | – | 5.19 | 5.19 | < 5.00 | < 4.30 | 6.44 | inactive | – | inactive
COc1ccc(Oc2ccccc2-c2ccsc2S(=O)(=O)N2CCN(C(=O)Nc3ccc(F)cc3)CC2)cc1OC | 28 | 33 | 15 | < 4.70 | 4.83 | < 4.30 | < 4.70 | – | – | – | –
COc1cccc(NC(=O)NCCNS(=O)(=O)c2ccc(-c3ccccc3OCc3ccccc3)s2)c1 | – | – | – | 5.77 | < 4.70 | < 4.70 | < 4.30 | 4.96 | inactive | – | inactive
COc1ccc(Oc2ccc([N+](=O)[O-])cc2-c2ccsc2S(=O)(=O)N2CCN(C(=O)Nc3ccc([N+](=O)[O-])cc3)CC2)cc1OC | 37 | 44 | 19 | < 4.30 | < 4.30 | < 4.70 | < 4.30 | – | – | – | –
